Measurements from patent publication US9376454B2, “Beta-lactamase inhibitors” (priority 2013, dated 2016).
pIC50: −log10 of the molar value.

Legend:
Type in all cases: biochemical
SHV-5 β-lactamase = molecular target: T1, SHV-5 β-lactamase (Klebsiella pneumoniae, UniProt P0A3M1); experiment: β-Lactamase inhibition enzyme assay, SHV-5
T1 construct: made in house; host or cells: E. coli BL21(DE3)
Procedure: (§1) For SHV-5, Kpc-2, p99AmpC and OXA-1 β-lactamases, E. coli BL21(DE3) bacterial cells carrying expression plasmids (expressed as native untagged proteins) for the individual β-lactamases were grown in 1 L of Superbroth (Teknova Inc. Hollister, Calif.) supplemented with 100 μg/ml kanamycin selection and 1×5052 (0.5% glycerol, 0.05% glucose and 0.2% α-lactose) at 35° C. for 18-20 hours. Cells were harvested by centrifugation (4,000×g, 4° C., 20 min), resuspended in 50 ml of 10 mM HEPES pH 7.5 ( 1/20 of the initial volume). The cells were lysed by sonication (5 pulses of 45 seconds) at 45 W on ice. The lysates were clarified by centrifugation at 10,000×g for 40 minutes at 4° C. Samples were diluted 5-fold in 50 mM sodium acetate pH 5.0, stored overnight at 4° C., after which they were centrifuged at 10,000×g for 30 minutes to clarify, and filtered through 0.45 μm filters. The samples were loaded onto a 5 ml Capto S sepharose cation exchange column (GE Healthcare) pre-equilibrated with 50 mM sodium acetate pH 5.0. The column was washed with 5 column volumes of 50 mM sodium acetate pH 5.0 to wash out unbound protein and a linear gradient of NaCl (0 to 500 mM) was used to elute the protein (over 16 CV) from the column. Fractions were assayed for β-lactamase activity using Centa (Calbiochem, Gibbstown, N.J.) or Nitrocefin (EMD Millipore chemicals, Darmstadt, Germany) as a reporter β-lactamase substrate for activity in the isolated fractions. Active fractions were pooled, concentrated and further purified by gel filtration chromatography on a Superdex 75 prep grade gel filtration column (GE Healthcare, Piscataway, N.J.) pre-equilibrated in 50 mM Hepes pH 7.5, 150 mM NaCl. Active fractions were pooled concentrated, quantitated by BCA protein determination (Thermo Scientific, Rockford, Ill.), dialyzed into PBS and frozen at −80° C. in 20% glycerol until use.
(§2) An equal volume of diluted enzyme stock was added, and the plates were incubated at 37° C. for 15 min. Nitrocefin was used as substrate for p99 AmpC, VIM-2 and OXA-1 and dispensed into each well at a final concentration of 100 μM. Absorbance at 486 nm was immediately monitored for 10 min using a Biotek Powerwave XS2 microplate spectrophotometer using the GEN5 softweare package (Biotek Instruments, Winooski Vt.). In an analogous fashion, imipenem was used as substrate for Kpc-2 and Cefotaxime was used for SHV-5, while changes in absorbance upon hydrolysis of the β-lactam ring were monitored at 300 nm and 260 nm respectively in UV-transparent 96-well microtiter assay plates. Maximum rates of hydrolysis were compared to those in control wells (without inhibitors), and percentages of enzyme inhibition were calculated for each concentration of inhibitor. The concentration of inhibitor needed to reduce the initial rate of hydrolysis of substrate by 50% (IC50) was calculated as the residual activity of β-lactamase at 486 nm using GraFit version 7 kinetics software package (Erithacus Software, Surrey, UK).

KPC-2 β-lactamase = molecular target: T2, KPC-2 β-lactamase (Klebsiella pneumoniae, UniProt Q9F663); experiment: β-Lactamase inhibition enzyme assay, KPC-2; details: imipenem as substrate, 300 nm; 15 min at 37° C. with enzyme, PBS pH 7.4; read-out: Class A KPC-2 IC50
T2 construct: made in house; host or cells: E. coli BL21(DE3)
Procedure: as §1, §2

[1] = molecular target: T3, VIM-2 metallo β-lactamase (Pseudomonas aeruginosa, UniProt Q9K2N0); experiment: β-Lactamase inhibition enzyme assay, VIM-2; details: Nitrocefin 100 μM as substrate, 486 nm; 15 min at 37° C. with enzyme, PBS pH 7.4; read-out: Class B VIM-2 IC50
T3 construct: made in house; host or cells: E. coli BL21(DE3)
Procedure: as §1
For Vim-2 metallo β-lactamase, the procedure was identical with the following exceptions, first the protein was not pH adjusted to pH 5 with 50 mM sodium acetate, second, the chromatography step was changed to a 5 ml Q sepharose anion exchange column pre-equilibrated with 50 mM Hepes pH 7.5, and elution of the protein was achieved by a linear gradient of NaCl (0-600 mM). Finally, the VIM-2 purification required a second run (3rd step) on the Q sepharose anion exchange column to achieve acceptable purity (>90%).
as §2

p99 AmpC β-lactamase = molecular target: T4, p99 AmpC β-lactamase (Enterobacter cloacae, UniProt P05364); experiment: β-Lactamase inhibition enzyme assay, p99 AmpC
T4 construct: made in house; host or cells: E. coli BL21(DE3)
Procedure: as §1, §2

OXA-1 β-lactamase = molecular target: T5, OXA-1 β-lactamase (Escherichia coli, UniProt P13661); experiment: β-Lactamase inhibition enzyme assay, OXA-1; details: Nitrocefin 100 μM as substrate, 486 nm; 15 min at 37° C. with enzyme, PBS pH 7.4; read-out: Class D OXA-1 IC50
T5 construct: made in house; host or cells: E. coli BL21(DE3)
Procedure: as §1, §2

T2 sequence (Q9F663 25-293, looked up): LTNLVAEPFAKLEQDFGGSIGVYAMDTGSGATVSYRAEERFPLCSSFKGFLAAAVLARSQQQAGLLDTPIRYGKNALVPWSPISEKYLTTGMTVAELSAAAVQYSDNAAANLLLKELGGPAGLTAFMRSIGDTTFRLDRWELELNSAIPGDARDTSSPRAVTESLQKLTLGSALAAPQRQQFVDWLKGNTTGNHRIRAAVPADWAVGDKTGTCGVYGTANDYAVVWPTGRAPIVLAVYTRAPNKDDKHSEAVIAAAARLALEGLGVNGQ
T1 sequence (P0A3M1 22-286): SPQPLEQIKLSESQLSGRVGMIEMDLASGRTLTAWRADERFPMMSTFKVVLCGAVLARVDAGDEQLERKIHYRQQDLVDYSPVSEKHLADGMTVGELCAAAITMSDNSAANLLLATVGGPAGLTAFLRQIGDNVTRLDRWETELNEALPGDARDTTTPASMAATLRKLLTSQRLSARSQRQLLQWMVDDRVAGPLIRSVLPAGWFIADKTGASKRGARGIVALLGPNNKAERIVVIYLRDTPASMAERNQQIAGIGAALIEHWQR
T5 sequence (P13661 26-276): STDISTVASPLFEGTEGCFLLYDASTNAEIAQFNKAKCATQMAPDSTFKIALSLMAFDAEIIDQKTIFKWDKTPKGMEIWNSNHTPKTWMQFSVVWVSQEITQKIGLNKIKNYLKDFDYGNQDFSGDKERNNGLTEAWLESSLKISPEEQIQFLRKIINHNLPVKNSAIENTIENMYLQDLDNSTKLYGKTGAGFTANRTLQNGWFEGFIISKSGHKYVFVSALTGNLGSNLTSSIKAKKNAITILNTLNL
T4 sequence (P05364 21-381): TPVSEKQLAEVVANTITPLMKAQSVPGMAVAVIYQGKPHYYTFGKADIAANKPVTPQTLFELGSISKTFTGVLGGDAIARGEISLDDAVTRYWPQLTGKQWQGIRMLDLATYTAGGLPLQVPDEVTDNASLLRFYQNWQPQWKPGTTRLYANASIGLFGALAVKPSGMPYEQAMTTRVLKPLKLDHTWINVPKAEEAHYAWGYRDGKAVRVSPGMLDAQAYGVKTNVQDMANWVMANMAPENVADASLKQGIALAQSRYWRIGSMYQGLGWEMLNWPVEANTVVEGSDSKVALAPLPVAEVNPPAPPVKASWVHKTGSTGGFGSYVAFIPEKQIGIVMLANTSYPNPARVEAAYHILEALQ

SMILES	pIC50 (SHV-5 β-lactamase)	pIC50 (KPC-2 β-lactamase)	pIC50 [1]	pIC50 (p99 AmpC β-lactamase)	pIC50 (OXA-1 β-lactamase)
NCCNc1ccc(CC(=O)N[C@H]2Cc3cccc(C(=O)O)c3OB2O)c[n+]1[O-] [Example 61, (R)-2-(2-aminoethylamino)-5-(2-(8-carboxy-2-hydroxy-3,4-dihydro-2H-benzo[e][1,2]oxaborinin-3-ylamino)-2-oxoethyl)pyridine 1-oxide]	> 7.00	> 7.00	6.00 to 7.00	> 7.00	> 7.00
NCCn1ccc2c(C(=O)N[C@H]3Cc4cccc(C(=O)O)c4OB3O)cccc21 [Example 42, (R)-3-{[1-(2-Amino-ethyl)-1H-indole-4-carbonyl]-amino}-2-hydroxy-3,4-dihydro-2H-benzo[e][1,2]oxaborinine-8-carboxylic acid]	> 7.00	> 7.00	6.00 to 7.00	> 7.00	> 7.00
O=C(N[C@H]1Cc2cccc(C(=O)O)c2OB1O)c1ccc2cc[nH]c2c1 [Example 30, (R)-2-hydroxy-3-(1H-indole-6-carboxamido)-3,4-dihydro-2H-benzo[e][1,2]oxaborinine-8-carboxylic acid]	6.00 to 7.00	> 7.00	6.00 to 7.00	> 7.00	> 7.00
NCCOc1ccc(C(=O)N[C@H]2Cc3cccc(C(=O)O)c3OB2O)cc1O [Example 40, (R)-3-(4-(2-aminoethoxy)-3-hydroxybenzamido)-2-hydroxy-3,4-dihydro-2H-benzo[e][1,2]oxaborinine-8-carboxylic acid]	6.00 to 7.00	> 7.00	> 7.00	> 7.00	> 7.00
N=C(N)N1Cc2ccc(CC(=O)N[C@H]3Cc4cccc(C(=O)O)c4OB3O)cc2C1 [Example 37, (3R)-3-[[2-(2-carbamimidoylisoindolin-5-yl)acetyl]amino]-2-hydroxy-3,4-dihydro-1,2-benzoxaborinine-8-carboxylic acid]	> 7.00	> 7.00	6.00 to 7.00	> 7.00	> 7.00
O=C(N[C@H]1Cc2cccc(C(=O)O)c2OB1O)c1cnc2c(c1)CNC2 [Example 50, (3R)-3-(6,7-dihydro-5H-pyrrolo[3,4-b]pyridine-3-carbonylamino)-2-hydroxy-3,4-dihydro-1,2-benzoxaborinine-8-carboxylic acid]	> 7.00	> 7.00	6.00 to 7.00	> 7.00	> 7.00
CNCc1ccc(C(=O)N[C@H]2Cc3cccc(C(=O)O)c3OB2O)cc1CNC [Example 19, (R)-3-(3,4-bis((methylamino)methyl)benzamido)-2-hydroxy-3,4-dihydro-2H-benzo[e][1,2]oxaborinine-8-carboxylic acid]	> 7.00	> 7.00	> 7.00	> 7.00	> 7.00
O=C(N[C@H]1Cc2cccc(C(=O)O)c2OB1O)c1ccc2nccnc2c1 [Example 29, (R)-2-hydroxy-3-(quinoxaline-6-carboxamido)-3,4-dihydro-2H-benzo[e][1,2]oxaborinine-8-carboxylic acid]	> 7.00	> 7.00	5.00 to 6.00	> 7.00	> 7.00
O=C(N[C@H]1Cc2cccc(C(=O)O)c2OB1O)c1csc2c1CCNC2 [Example 4, (R)-2-hydroxy-3-(4,5,6,7-tetrahydrothieno[2,3-c]pyridine-3-carboxamido)-3,4-dihydro-2H-benzo[e][1,2]oxaborinine-8-carboxylic acid]	> 7.00	> 7.00	6.00 to 7.00	> 7.00	> 7.00
NCCn1ccc2ccc(C(=O)N[C@H]3Cc4cccc(C(=O)O)c4OB3O)cc21 [Example 41, (R)-3-{[1-(2-Amino-ethyl)-1H-indole-6-carbonyl]-amino}-2-hydroxy-3,4-dihydro-2H-benzo[e][1,2]oxaborinine-8-carboxylic acid]	> 7.00	> 7.00	> 7.00	> 7.00	> 7.00
CN1Cc2ccc(C(=O)N[C@H]3Cc4cccc(C(=O)O)c4OB3O)cc2C1 [Example 10, (R)-2-hydroxy-3-(2-methylisoindoline-5-carboxamido)-3,4-dihydro-2H-benzo[e][1,2]oxaborinine-8-carboxylic acid]	> 7.00	> 7.00	> 7.00	> 7.00	> 7.00
O=C(N[C@H]1Cc2cccc(C(=O)O)c2OB1O)c1ccc(-c2ccccn2)cc1 [Example 24, (R)-2-hydroxy-3-(4-(pyridin-2-yl)benzamido)-3,4-dihydro-2H-benzo[e][1,2]oxaborinine-8-carboxylic acid]	> 7.00	> 7.00	6.00 to 7.00	> 7.00	> 7.00
CN1CCc2cc(C(=O)N[C@H]3Cc4cccc(C(=O)O)c4OB3O)ccc2C1 [Example 7, (R)-2-hydroxy-3-(2-methyl-1,2,3,4-tetrahydroisoquinoline-6-carboxamido)-3,4-dihydro-2H-benzo[e][1,2]oxaborinine-8-carboxylic acid]	> 7.00	> 7.00	6.00 to 7.00	> 7.00	6.00 to 7.00
N=C(N)N1Cc2ccc(C(=O)N[C@H]3Cc4cccc(C(=O)O)c4OB3O)cc2C1 [Example 16, (R)-3-(2-carbamimidoylisoindoline-5-carboxamido)-2-hydroxy-3,4-dihydro-2H-benzo[e][1,2]oxaborinine-8-carboxylic acid]	> 7.00	> 7.00	> 7.00	> 7.00	> 7.00
NCc1cc(C(=O)N[C@H]2Cc3cccc(C(=O)O)c3OB2O)cnc1CN [Example 62, (R)-3-(5,6-bis(aminomethyl)nicotinamido)-2-hydroxy-3,4-dihydro-2H-benzo[e][1,2]oxaborinine-8-carboxylic acid]	> 7.00	> 7.00	6.00 to 7.00	> 7.00	> 7.00
O=C(N[C@H]1Cc2cccc(C(=O)O)c2OB1O)c1ccc2c(c1)CNC2 [Example 9, (R)-2-hydroxy-3-(isoindoline-5-carboxamido)-3,4-dihydro-2H-benzo[e][1,2]oxaborinine-8-carboxylic acid]	> 7.00	> 7.00	> 7.00	> 7.00	> 7.00
NC1=Nc2cc(C(=O)N[C@H]3Cc4cccc(C(=O)O)c4OB3O)ccc2CN1 [Example 15, (R)-3-(2-amino-3,4-dihydroquinazoline-7-carboxamido)-2-hydroxy-3,4-dihydro-2H-benzo[e][1,2]oxaborinine-8-carboxylic acid]	> 7.00	6.00 to 7.00	5.00 to 6.00	> 7.00	6.00 to 7.00
O=C(O)c1cccc2c1OB(O)[C@@H](NC(=O)c1c[nH]c3ncccc13)C2 [Example 8, (R)-2-hydroxy-3-(1H-pyrrolo[2,3-b]pyridine-3-carboxamido)-3,4-dihydro-2H-benzo[e][1,2]oxaborinine-8-carboxylic acid]	> 7.00	6.00 to 7.00	5.00 to 6.00	> 7.00	–
